Results as given in patent US9944721B2, “Polysialic acid and use for treatment of neurodegenerative and neuroinflammatory diseases” (RHEINISCHE FRIEDRICH-WILHELMS UNIVERSITÄT BONN, priority 2013, dated 2018).

Columns and labels:
Format in all cases: cell-based
[1] = test system: human macrophage cell line THP-1; assay: LPS-induced TNF-alpha gene transcription in human macrophages; details: THP-1, LPS 1 μg/ml, 24 hours; 0.15 μM and 0.5 μM; FIG. 5B
Description: The human monocyte line THP-1 (ATCC TIB-202) was cultured in RPMI medium with 10% FCS, 1% sodium pyruvate and 1% penicillin/streptomycin (100×) (all Gibco, Invitrogen) in 75 ml cell culture flasks (Sarstedt). For differentiation into tissue macrophages the line was cultured for 3 hours in normal cell culture medium containing 0.5 μM phorbol 12-myristate 13-acetate (Sigma) and afterwards in phorbol 12-myristate 13-acetate free medium for at least 24 hours.
FIG. 5B illustrates the effect of low molecular weight PSA (PSA-20) on the pro-inflammatory cytokine TNF-alpha. The human macrophage cell line THP-1 was treated with lipopolysaccharides (LPS, 1 μg/ml) and PSA-20 (different concentrations) for 24 hours. Gene transcripts for tumor necrosis factor-α a (TNFα) were determined by quantitative RT-PCR and normalized to GAPDH. In detail, RNA isolation was performed using RNeasy Mini Kit (Qiagen) and transcription with the SuperScript First-Strand Synthesis System (Invitrogen). Quantitative RT-PCR with specific oligonucleotides (GAPDH: […] (SEQ ID NO: 1) and […] (SEQ ID NO: 2); TNFα: […] (SEQ ID NO: 3) and […] (SEQ ID NO: 4)) was performed using SYBR green PCR Master Mix with the Mastercycler epgradients S (Eppendorf). Results were normalized to GAPDH. Quantification using the delta-CT method was carried out.

[2] = test system: human neurons co-cultured with LPS-pre-activated human microglia; assay: LPS-toxin induced microglia-neuron co-culture Parkinson's disease model (neurite length); details: 1.5 μM, 48 hours, without PSA-20 0.64+/−0.01, FIG. 9A
Description: Human induced pluripotent stem cell-derived microglia (iPSdM) were obtained from induced pluripotent stem (iPS) cells. The microglial iPSdM line 1 (iPSdM-1) was used in this study generated from the iLB-C-35m-r1 clone (Bonn). iPSdM-1 (here named microglia or microglial cells) were cultured in N2-medium consisting of DMEM/F12 culture medium (Gibco) supplemented with 1% N2 (Invitrogen), 0.48 mM L-glutamine (Gibco) and 100 μg/ml penicillin/streptomycin (Gibco). Human induced pluripotent stem (iPS) cells (Foreskin-1, WiCell) were used for the generation of primitive neural stem cell (pNSC) and their differentiation into neurons according to a modified protocol, which was used to obtain primitive neural precursors from human embryonic stem cells. Briefly, iPS cells were cultured on feeder cells to form small colonies. […]
10 pictures per condition per experiment were taken by confocal laser scanning microscopy (Fluoview 1000, Olympus). Measurement of neuronal branches was done by ImageJ/Neuron J software (NIH) and relative neural branches lengths were quantified. […]

human microglial cells = assay: Phagocytosis associated oxidative burst: neural debris triggered superoxide release (DHE)
Description: To measure the relative production of superoxide by the microglial cells, human microglial cells were plated in 4-chamber culture dishes. After 24 hours cells were treated with 5 mg/ml neural debris for 15 minutes with or without 1 hour PSA-20 pre-incubation at concentrations of 0.15 μM, 0.5 μM or 1.5 μM. Then, cells were washed 2-times with Krebs-HEPES-buffer. To detect the release of superoxide the cells were afterwards incubated for 15 minutes with 30 μM superoxide-sensitive fluorescent dye dihydroethidium (DHE) solution diluted in Krebs-HEPES-buffer. Finally cells were washed 2-times with Krebs-HEPES-buffer and fixed for 15 minutes with 0.25% glutaraldehyde and 4% PFA. In total, six images were randomly collected per experimental group by confocal laser scanning microscopy (Fluoview 1000, Olympus). All cells of the collected images were analyzed by Image J software (NIH).
To confirm the effect, Trolox as scavenger of superoxide and superoxide dismutase-1 (SOD1) as modifier of superoxide were used in a control experiment as described above using 1.5 μM of PSA-20 but adding either 40 μM Trolox or 20 μg/ml (SOD1) into the medium. […] As can be taken from the FIG. 9C, the radical scavenger Trolox and the superoxide dismutase SOD1 neutralized the neural debris triggered superoxide release and as controls confirmed that DHE detected an extracellular production of superoxide.

In the case of poly-(α(2→8)Neu5Ac)n [PSA-20], the “LPS-induced gene transcription of TNF-alpha” value [1] was “reduced”, the relative neurite length [2] was 0.91+/−0.02 and the “superoxide release triggered by neural debris” value (human microglial cells; 0.5 μM and 1.5 μM) was “inhibited”. For the same substance, the “relative superoxide production, debris-induced” value (human microglial cells; 1.5 μM, 1 hour pre-incubation, debris alone 1.5+/−0.08, FIG. 9C) was 0.9+/−0.05.
